Data from US7728131B2, “Amide derivative and medicine” (Nippon Shinyaku Co., Ltd., priority 2003, dated 2010).
Where two headings read alike, the source gives them in different places.

How the values were obtained:
U937 cells = test: Cell growth inhibitory effect, U937 cells (Cell counting Kit-8, 72 hours); assay type: cell-based; settings: Homo sapiens, U-937, BCR-ABL negative U937 cells, WST-8 absorbance
Protocol: The plate was incubated in a CO2 incubator overnight. […] The plate was incubated in a CO2 incubator. After 72 hours, 20 μl

K562 cells = test: Cell growth inhibitory effect, K562 cells (Cell counting Kit-8, 72 hours); settings: for IC50: Homo sapiens, K562, 72 h, read-out: K562 cells (IC50 value: μM); for Ratio (U937 cells/K562 cells): IC50 U937 cells / IC50 K562 cells;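 as to all read-outs here: Read-out is formazan absorbance at 450 nm from WST-8 reduction after a 3 h color reaction, with K562 and U937 cells grown in 96-well plates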
Protocol: of Cell counting Kit-8 (5 mmol/l WST-8, 0.2 mmol/1 1-Methoxy PMS, 150 mmol/l NaCl) (manufactured by Dojindo) was added to each well. After reaction for color development in a CO2 incubator for 3 hours, an absorbance of formazan, generated by reduction of WST-8 was determined at 450 nm using Multi-level counter ARVOsx (manufactured by Wallac).
K562 cells and U937 cells (purchased from American Type Culture Collection) were cultured in a RPMI-1640 medium (manufactured by Sigma) containing 10% (v/v) fetal calf serum (FCS) (manufactures by Sigma) (RPMI-1640/FCS). K562 cells and U937 cells were seeded at a density of 5000 cells/100 μl/well and 4000 cells/100 μl/well in each of 96-hole-plate (manufactured by costar), respectively. The plate was incubated in a CO2 incubator overnight. […] The resulting solution was diluted 500 times in a RPMI-1640/FCS medium and then 100 μl of the diluent was added in a well. The plate was incubated in a CO2 incubator. After 72 hours, 20 μl

[1] = continuation of Table 3, read-out: U937 cells (IC50 value: nμM)

| IC50 (U937 cells; [1]) [µM] | melting point | IC50 (K562 cells) [µM] | IC50 (U937 cells; read-out: U937 cells (IC50 value: μM)) [µM] | Compound | Ratio (U937 cells/K562 cells) (K562 cells) |
| --- | --- | --- | --- | --- | --- |
| > 100 | 159 to 167 °C (dec.) | 0.018 | – | Cc1ccc(NC(=O)c2ccc(CN3CC(N(C)C)C3)c(C(F)(F)F)c2)cc1Nc1nccc(-c2cncnc2)n1.Cl [Example 77, 4-[3-(dimethylamino)azetidin-1-ylmethyl]-3-trifluoromethyl-N-{4-methyl-3-[4-(5-pyrimidinyl)pyrimidin-2-ylamino]phenyl}benzamide hydrochloride] | >13699 |
| 1.6 | 193 to 199 °C | 0.0014 | – | Cc1ccc(NC(=O)c2ccc(CN3CCC[C@H](N)C3)c(C(F)(F)F)c2)cc1Nc1nccc(-c2cncnc2)n1.Cl [Example 62, (+)-4-((S)-3-aminopiperidinomethyl)-3-trifluoromethyl-N-{4-methyl-3-[4-(5-pyrimidinyl)pyrimidin-2-ylamino]phenyl}benzamide hydrochloride] | 1143 |
| 5 | 203 to 206 °C (dec.) | 0.0011 | – | Cc1ccc(NC(=O)c2ccc(CN3CCN(C)CC3)c(C(F)(F)F)c2)cc1Nc1cc(-c2cncnc2)ccn1.Cl [Example 23, 4-(4-methylpiperazin-1-ylmethyl)-3-trifluoromethyl-N-{4-methyl-3-[4-(5-primidinyl)pyridin-2-ylamino]phenyl}benzamide hydrochloride] | 4545 |
| 6.7 | 186 to 194 °C | 0.0061 | – | Cc1ccc(NC(=O)c2ccc(CN3CCN(C)[C@H](C)C3)c(C(F)(F)F)c2)cc1Nc1nccc(-c2cncnc2)n1.Cl [Example 71, (+)-4-((R)-3,4-dimethylpiperazin-1-ylmethyl)-3-trifluoromethyl-N-{4-methyl-3-[4-(5-pyrimidinyl)pyrimidin-2-ylamino]phenyl}benzamide hydrochloride] | 1098 |
| 2.7 | 186 to 188 °C | 0.0059 | – | Cc1ccc(NC(=O)c2ccc(CN3CCN(C)CC3)c(C(F)(F)F)c2)cc1Nc1nc(-c2ccncc2)cs1.Cl [Example 75, 4-(4-methylpipiperazin-1-ylmethyl)-3-trifluoromethyl-N-{4-methyl-3-[4-(4-pyridyl)thiazol-2-ylamino]phenyl}benzamide hydrochloride] | 458 |
| 9.7 | 218 to 226 °C (dec.) | 0.0023 | – | Cc1ccc(NC(=O)c2ccc(CN3CCN(Cc4oc(=O)oc4C)CC3)c(C(F)(F)F)c2)cc1Nc1nccc(-c2cncnc2)n1.Cl [Example 73, 4-{4-[(5-methyl-2-oxo-1,3-dioxol-4-yl)methyl]piperazin-1-ylmethyl}-3-trifluoromethyl-N-{4-methyl-3-[4-(5-pyrimidinyl)pyrimidin-2-ylamino]phenyl}benzamide hydrochloride] | 4217 |
| – | 253 to 255 °C (dec.) | 0.002 | 28 | CCc1cc(C(=O)Nc2ccc(C)c(Nc3nccc(-c4cncnc4)n3)c2)ccc1CN1CCN(C)CC1.Cl [Example 4, 3-ethyl-4-(4-methylpiperazin-1-ylmethyl)-N-{4-methyl-3-[4-(5-pyrimidinyl)pyrimidin-2-ylamino]phenyl}benzamide hydrochloride] | 14000 |

| Compound | IC50 (U937 cells; [1]) [µM] | melting point | IC50 (K562 cells) [µM] | IC50 (U937 cells; read-out: U937 cells (IC50 value: μM)) [µM] | Ratio (U937 cells/K562 cells) (K562 cells) |
| --- | --- | --- | --- | --- | --- |
| Cc1ccc(NC(=O)c2ccc(CN3CCN(CCF)CC3)c(C(F)(F)F)c2)cc1Nc1nccc(-c2cncnc2)n1.Cl [Example 35, 4-[4-(2-fluoroethyl)piperazin-1-ylmethyl]-3-trifluoromethyl-N-{4-methyl-3-[4-(5 yrimidinyl)pyrimidin-2-ylamino]phenyl}benzamide hydrochloride] | 11 | 213 to 233 °C (dec.) | 0.0034 | – | 3235 |
